Literature values as cited in US4410715A, “Process for the epoxidation of olefins using a group V metal co-catalyst I and a phenolic hydrocarbon co-catalyst II” (Exxon Research & Engineering Co., priority 1982, dated 1983).

Conditions: for pKa: aqueous solution at 25° C.

| SMILES | pKa | basicity (footnote to pKa column, in words) (in place of a pKa value) |
| --- | --- | --- |
| Oc1ccc(Cl)cc1Cl [2,4-DCP, 2,4-dichlorophenol] | 7.7 |  |
| Oc1ccc(Cl)cc1 [p-chlorophenol] | 9.2 |  |
| CC(C)(C)c1ccc(O)c(C(C)(C)C)c1 [2,4-di-t-butyl phenol] | 11.6 |  |
| Oc1cccc(Cl)c1 [m-chlorophenol] | 8.8 |  |
| Cc1ccc(O)cc1 [p-cresol] | 10.2 |  |
| COc1ccccc1O [2-methoxy-phenol, 2-methoxyphenol] | 10.0 |  |
| Oc1c(Cl)cccc1Cl [2,6-DCP, 2,6-dichlorophenol] | 6.8 |  |
| Oc1ccccc1Cl [o-chlorophenol] | 8.5 |  |
| C1COCCO1 [1,4-dioxane, reference compound] |  | basic |
